Entries after “also recorded” stand apart in the source; their conditions may differ.
How the values were obtained:
[1] = system: balloon-injured rat aortas; test: Balloon injury (abdominal aortic denudation) of Lewis rat aortas; format: in vivo, Lewis rats
Procedure: For example, abdominal aortic denudation in Lewis rats was performed to induce neointimal proliferation. […] The development of intimal hyperplasia was analyzed by histopathology. Confocal immunofluorescence microscopy and 3-dimensional reconstruction was performed to identify cell proliferation (Ki67) and apoptosis (TUNEL).

[2] = Side-effects in the various in vivo models
[3] = system: human vascular SMCs; test: Cultured human vascular SMCs, PDGF stimulation / staurosporine apoptosis induction; format: cell-based; conditions: VDAC closure/inhibition
Source text: Proliferation and apoptosis leveled off after twenty eight (28) days when there was also no further progression of myointimal disease (FIGS. 1c, 1e). […] Human vascular SMCs were isolated from fresh hMA and characterized (Extended Data FIGS. 4e-4f). PDGF was then shown to induce ΔΨm hyperpolarization in cultured SMCs (Extended Data FIG. 4g), similar to the ΔΨm hyperpolarization previous observed in injured hMAs (FIG. 1f). Thus, mitochondrial ΔΨm hyperpolarization in myointimal SMCs and cultured SMCs coincided with the availability of PDGF.

O=C(O)C(Cl)Cl [DCA, dichloroacetate]
luminal obliteration (intimal hyperplasia) ([1]; DCA treatment for 28 days via drinking water (0.75 g/L), p=0.006 vs. untreated 28-day control (24.2±3.5%)): 7.9±6.3%
luminal obliteration (neointimal formation) ([1]; delayed DCA treatment starting on day 14, p=0.001 vs. untreated 28-day control): 3.5±2.9%
vessel re-endothelialization ([1]; in vivo, after mechanical endothelial denudation): does not impair; also recorded: did not prevent vessel re-endothelialization; also recorded: nor inhibited vessel re-endothelialization
side-effects or off-target effects [2]: didn't show any side-effects or off-target effects

O=S(=O)(O)c1cc(N=C=S)ccc1C=Cc1ccc(N=C=S)cc1S(=O)(=O)O [DIDS]
SMC ΔΨm [3]: caused ΔΨm hyperpolarization; also recorded: increased
apoptosis ([3]; staurosporine-induced): rendered SMCs resistant; also recorded: reduced

Cc1ccc(NC(=O)c2ccc(CN3CCN(C)CC3)cc2)cc1Nc1nccc(-c2cccnc2)n1 [imatinib]
myointimal lesions ([1]; compared to untreated control 28 vessels): only minor lesions

Reference: patent US10016378B2, “Compositions and methods for inhibiting intimal hyperplasia” (priority 2014, dated 2018)
